Data reported in ChEMBL document CHEMBL4342480, “Design of Dual Inhibitors of Soluble Epoxide Hydrolase and LTA4 Hydrolase” (ACS Med Chem Lett, 2020).

Legend:
[1] = tested on: Macrophage; test: Antiinflammatory activity in Escherichia coli O6:K2:H1-induced human M2 macrophage assessed as change in 18-HEPE level at 10 uM preincubated for 10 mins followed by Escherichia coli O6:K2:H1-stimulation and measured after 180 mins by UPLC-MS/MS analysis relative to control; format: functional
[2] = tested on: Macrophage; test: Antiinflammatory activity in Escherichia coli O6:K2:H1-induced human M2 macrophage assessed as change in 7-HDHA level at 10 uM preincubated for 10 mins followed by Escherichia coli O6:K2:H1-stimulation and measured after 180 mins by UPLC-MS/MS analysis relative to control; format: functional
[3] = tested on: Macrophage; test: Antiinflammatory activity in Escherichia coli O6:K2:H1-induced human M2 macrophage assessed as change in PGE2 level at 1 uM preincubated for 10 mins followed by Escherichia coli O6:K2:H1-stimulation and measured after 180 mins by UPLC-MS/MS analysis relative to control; format: functional
[4] = tested on: Macrophage; test: Antiinflammatory activity in Escherichia coli O6:K2:H1-induced human M1 macrophage assessed as change in total LTB4 level at 10 uM preincubated for 10 mins followed by Escherichia coli O6:K2:H1-stimulation and measured after 180 mins by UPLC-MS/MS analysis relative to control; format: functional
[5] = tested on: Macrophage; test: Antiinflammatory activity in Escherichia coli O6:K2:H1-induced human M2 macrophage assessed as change in 5-HEPE level at 10 uM preincubated for 10 mins followed by Escherichia coli O6:K2:H1-stimulation and measured after 180 mins by UPLC-MS/MS analysis relative to control; format: functional
[6] = tested on: Macrophage; test: Antiinflammatory activity in Escherichia coli O6:K2:H1-induced human M1 macrophage assessed as change in PGF2alpha level at 1 uM preincubated for 10 mins followed by Escherichia coli O6:K2:H1-stimulation and measured after 180 mins by UPLC-MS/MS analysis relative to control; format: functional
[7] = tested on: Macrophage; test: Antiinflammatory activity in Escherichia coli O6:K2:H1-induced human M2 macrophage assessed as change in 15-HETE level at 10 uM preincubated for 10 mins followed by Escherichia coli O6:K2:H1-stimulation and measured after 180 mins by UPLC-MS/MS analysis relative to control; format: functional
[8] = tested on: Macrophage; test: Antiinflammatory activity in Escherichia coli O6:K2:H1-induced human M2 macrophage assessed as change in 17-HDHA level at 10 uM preincubated for 10 mins followed by Escherichia coli O6:K2:H1-stimulation and measured after 180 mins by UPLC-MS/MS analysis relative to control; format: functional
[9] = tested on: Macrophage; test: Antiinflammatory activity in Escherichia coli O6:K2:H1-induced human M2 macrophage assessed as change in 5.15-dlHETE level at 10 uM preincubated for 10 mins followed by Escherichia coli O6:K2:H1-stimulation and measured after 180 mins by UPLC-MS/MS analysis relative to control; format: functional
[10] = tested on: Macrophage; test: Antiinflammatory activity in Escherichia coli O6:K2:H1-induced human M1 macrophage assessed as change in 18-HEPE level at 1 uM preincubated for 10 mins followed by Escherichia coli O6:K2:H1-stimulation and measured after 180 mins by UPLC-MS/MS analysis relative to control; format: functional
[11] = tested on: Macrophage; test: Antiinflammatory activity in Escherichia coli O6:K2:H1-induced human M2 macrophage assessed as change in 18-HEPE level at 1 uM preincubated for 10 mins followed by Escherichia coli O6:K2:H1-stimulation and measured after 180 mins by UPLC-MS/MS analysis relative to control; format: functional
[12] = tested on: Macrophage; test: Antiinflammatory activity in Escherichia coli O6:K2:H1-induced human M2 macrophage assessed as change in 5-HEPE level at 1 uM preincubated for 10 mins followed by Escherichia coli O6:K2:H1-stimulation and measured after 180 mins by UPLC-MS/MS analysis relative to control; format: functional
[13] = tested on: Macrophage; test: Antiinflammatory activity in Escherichia coli O6:K2:H1-induced human M2 macrophage assessed as change in 4-HDHA level at 1 uM preincubated for 10 mins followed by Escherichia coli O6:K2:H1-stimulation and measured after 180 mins by UPLC-MS/MS analysis relative to control; format: functional
[14] = tested on: Macrophage; test: Antiinflammatory activity in Escherichia coli O6:K2:H1-induced human M1 macrophage assessed as change in 4-HDHA level at 10 uM preincubated for 10 mins followed by Escherichia coli O6:K2:H1-stimulation and measured after 180 mins by UPLC-MS/MS analysis relative to control; format: functional
[15] = tested on: Macrophage; test: Antiinflammatory activity in Escherichia coli O6:K2:H1-induced human M2 macrophage assessed as change in 5-HETE level at 10 uM preincubated for 10 mins followed by Escherichia coli O6:K2:H1-stimulation and measured after 180 mins by UPLC-MS/MS analysis relative to control; format: functional
[16] = tested on: Macrophage; test: Antiinflammatory activity in Escherichia coli O6:K2:H1-induced human M2 macrophage assessed as change in 14-HDHA level at 10 uM preincubated for 10 mins followed by Escherichia coli O6:K2:H1-stimulation and measured after 180 mins by UPLC-MS/MS analysis relative to control; format: functional
[17] = tested on: Macrophage; test: Antiinflammatory activity in Escherichia coli O6:K2:H1-induced human M2 macrophage assessed as change in […] level at 10 uM preincubated for 10 mins followed by Escherichia coli O6:K2:H1-stimulation and measured after 180 mins by UPLC-MS/MS analysis relative to control; format: functional
[18] = tested on: Macrophage; test: Antiinflammatory activity in Escherichia coli O6:K2:H1-induced human M1 macrophage assessed as change in 12-HEPE level at 10 uM preincubated for 10 mins followed by Escherichia coli O6:K2:H1-stimulation and measured after 180 mins by UPLC-MS/MS analysis relative to control; format: functional
[19] = target: T1, Bifunctional epoxide hydrolase 2 (Homo sapiens, UniProt P34913); test: Inhibition of full length human soluble epoxide hydrolase (1 to 555 residues) expressed in Escherichia coli BL21(DE3) using non-fluorescent PHOME as substrate preincubated for 30 mins followed by substrate addition and measured for 30 mins by fluorescence based assay
T1 sequence (P34913 whole entry): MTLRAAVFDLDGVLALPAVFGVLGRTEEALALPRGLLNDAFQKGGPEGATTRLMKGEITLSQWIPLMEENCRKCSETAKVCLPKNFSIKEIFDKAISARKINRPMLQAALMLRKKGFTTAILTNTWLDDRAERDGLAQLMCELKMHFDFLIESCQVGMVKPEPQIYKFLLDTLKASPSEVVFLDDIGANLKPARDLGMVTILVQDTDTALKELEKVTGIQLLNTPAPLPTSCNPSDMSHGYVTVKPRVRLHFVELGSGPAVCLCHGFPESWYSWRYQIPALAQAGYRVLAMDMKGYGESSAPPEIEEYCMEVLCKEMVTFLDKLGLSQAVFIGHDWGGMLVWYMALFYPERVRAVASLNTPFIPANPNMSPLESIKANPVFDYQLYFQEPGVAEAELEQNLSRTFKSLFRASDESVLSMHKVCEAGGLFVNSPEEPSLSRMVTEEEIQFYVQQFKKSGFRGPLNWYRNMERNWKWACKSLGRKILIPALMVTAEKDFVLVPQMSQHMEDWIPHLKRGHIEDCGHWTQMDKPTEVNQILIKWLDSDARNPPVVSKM

[20] = tested on: Macrophage; test: Antiinflammatory activity in Escherichia coli O6:K2:H1-induced human M1 macrophage assessed as change in 4-HDHA level at 1 uM preincubated for 10 mins followed by Escherichia coli O6:K2:H1-stimulation and measured after 180 mins by UPLC-MS/MS analysis relative to control; format: functional

`O=C(Cc1ccc(Oc2nc3ccccc3s2)cc1F)NCCc1ccc(F)cc1` showed an Activity [1] of 96%, an Activity [2] of 77% and an Activity [3] of 61%. The Activity [4] was 28%, the Activity [5] was 97% and the Activity [6] was 94%. It also gave an Activity [7] of 123%, an Activity [8] of 135% and an Activity [9] of 101%. For the same compound, the Activity [10] was 74%, the Activity [11] was 86% and the Activity [12] was 93%. For the same compound, the Activity [13] was 82%, the Activity [14] was 72% and the Activity [15] was 44%. The Activity [16] was 106%, the Activity [17] was 26% and the Activity [18] was 113%. For the same compound, the IC50 [19] was 300 nM and the Activity [20] was 88%.
